Measured values: PubChem BioAssay (NCI)
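All cell lines were grown in 96-well plates and treated with compound for 48 hours. TGI denotes the concentration required for complete inhibition of growth.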

Columns and labels:
Experiment in all cases: NCI tumour cell line growth inhibition, 48 h
DLD-1 colon = test system: DLD-1 colon
LXFL 529 NSCLC = test system: LXFL 529 NSCLC
SNB-78 CNS = test system: SNB-78 CNS
KM20L2 colon = test system: KM20L2 colon
M19-MEL melanoma = test system: M19-MEL melanoma
HOP-18 NSCLC = test system: HOP-18 NSCLC
P388/ADR leukemia = test system: P388/ADR leukemia
SN12K1 renal = test system: SN12K1 renal
P388 leukemia = test system: P388 leukemia
XF 498 CNS = test system: XF 498 CNS
RXF-631 renal = test system: RXF-631 renal

Compound	TGI (DLD-1 colon) [µM]	TGI (LXFL 529 NSCLC) [µM]	TGI (SNB-78 CNS) [µM]	TGI (KM20L2 colon) [µM]	TGI (M19-MEL melanoma) [µM]	TGI (HOP-18 NSCLC) [µM]	TGI (P388/ADR leukemia) [µM]	TGI (SN12K1 renal) [µM]	TGI (P388 leukemia) [µM]	TGI (XF 498 CNS) [µM]	TGI (RXF-631 renal) [µM]
CN(C)CCCNc1ccc2nnn3c4ccc(O)cc4c(=O)c1c23	18.1	20.1	20.7	17.1	25.6	29.1					
O=C(O)c1ccccc1N=Cc1ccc(N(CCCl)CCCl)cc1	> 100		> 100	> 100	> 100	> 100	> 100	> 100	> 100		
COc1cccc(C=O)c1[O-].[O]=[U](=[O])([OH2+])[OH2+]	> 100	> 100	> 100	> 100	> 100	88.9					
CN=C(/N=c1\ssc(=NC)n1C)N(C)C	> 100	> 100		> 100	> 100	> 100				> 100	> 100
COc1cccc(N[C@@H]2c3cc4c(cc3C(c3cc(OC)c(O)c(OC)c3)[C@H]3C(=O)OCC32)OCO4)c1 (stereo not given in full)	8.35		> 100	> 29.4	> 59.7	21.7	0.984	9.55	0.385	23.9	
NCc1cccc(O)c1O	> 100	> 100	> 100	> 100	> 100	> 100				> 100	> 100
O=C1c2c(O)cccc2-c2nn(CCNCCO)c3ccc(NCCNCCO)c1c23	> 41.3	1.14	5.99	9.29	1.15	5.41				0.379	5.54
CC1=C2C(=CO[C@H](C)[C@H]2C)C(=O)C(C(=O)O)=C1O	66.9		82.8	71.7	79.1	57.9	67.7	42	500	13.6	
CC1(C)CC2(CC(C)(C)N1O)NC(=O)OC2=O	> 100		> 100	> 100	> 100	> 100	> 100	> 100	> 100	> 100	
